Laboratory results from PubChem BioAssay (NCI).
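48-hour exposure; five concentrations; linearly interpolated endpoints. The concentration for 50% growth inhibition is given as GI50. TGI: concentration producing complete growth inhibition.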

Key:
Assay in all cases: inhibition of tumour cell growth, NCI panel, 48 h
[1] = system: SNB-78 CNS
[2] = system: RPMI-8226 leukemia
[3] = system: COLO 205 colon
[4] = system: HCT-116 colon
[5] = system: SK-MEL-2 melanoma
[6] = system: HOP-92 NSCLC
[7] = system: A498 renal
[8] = system: HCC-2998 colon
[9] = system: CCRF-CEM leukemia
[10] = system: A549 NSCLC
[11] = system: MOLT-4 leukemia
[12] = system: UO-31 renal
[13] = system: KM20L2 colon
[14] = system: OVCAR-5 ovarian
[15] = system: SNB-19 CNS
[16] = system: 786-0 renal
[17] = system: SK-MEL-28 melanoma
[18] = system: CAKI-1 renal
[19] = system: NCI-H23 lung
[20] = system: HOP-62 NSCLC
[21] = system: HOP-18 NSCLC
[22] = system: EKVX NSCLC
[23] = system: RXF 393 renal
[24] = system: DLD-1 colon
[25] = system: SF-268 CNS
[26] = system: SN12C renal
[27] = system: OVCAR-4 ovarian
[28] = system: SW-620 colon
[29] = system: OVCAR-8 ovarian
[30] = system: NCI-H226 lung
[31] = system: UACC-62 melanoma
[32] = system: OVCAR-3 ovarian
[33] = system: M14 melanoma
[34] = system: SF-295 CNS
[35] = system: DMS 273 small cell lung
[36] = system: LOX IMVI melanoma
[37] = system: SK-MEL-5 melanoma
[38] = system: HCT-15 colon
[39] = system: ACHN renal
[40] = system: K-562 leukemia
[41] = system: UACC-257 melanoma
[42] = system: IGROV1 ovarian
[43] = system: NCI-H460 lung
[44] = system: SF-539 CNS
[45] = system: HT29 colon
[46] = system: MALME-3M melanoma
[47] = system: SNB-75 CNS
[48] = system: HL-60(TB) leukemia

For `CC[O-].CC[O-].O=C1C(=C([O-])c2ccccc2)C(=O)c2ccccc21.O=C1C(=C([O-])c2ccccc2)C(=O)c2ccccc21.[Ti+4]`, the GI50 [1] was over 100 µM, the TGI [1] was over 100 µM and the GI50 [2] was 42.5 µM. The TGI [2] was over 100 µM, the GI50 [3] was 29.2 µM and the TGI [3] was over 100 µM. For the same compound, the GI50 [4] was over 100 µM, the TGI [4] was over 100 µM and the GI50 [5] was 66.3 µM. The TGI [5] was over 100 µM, the GI50 [6] was 95.1 µM and the TGI [6] was over 100 µM. The GI50 [7] was over 100 µM, the TGI [7] was over 100 µM and the GI50 [8] was over 100 µM. For the same compound, the TGI [8] was over 100 µM, the GI50 [9] was over 100 µM and the TGI [9] was over 100 µM. For the same compound, the GI50 [10] was over 100 µM, the TGI [10] was over 100 µM and the GI50 [11] was over 100 µM. It also gave a TGI [11] of over 100 µM, a GI50 [12] of over 100 µM and a TGI [12] of over 100 µM. The GI50 [13] was over 100 µM, the TGI [13] was over 100 µM and the GI50 [14] was over 100 µM. For the same compound, the TGI [14] was over 100 µM, the GI50 [15] was 29 µM and the TGI [15] was 93 µM. For the same compound, the GI50 [16] was over 100 µM, the TGI [16] was over 100 µM and the GI50 [17] was over 10 µM. For the same compound, the TGI [17] was over 10 µM, the GI50 [18] was 29.6 µM and the TGI [18] was over 100 µM. For the same compound, the GI50 [19] was 92.3 µM, the TGI [19] was over 100 µM and the GI50 [20] was over 100 µM. For the same compound, the TGI [20] was over 100 µM, the GI50 [21] was over 100 µM and the TGI [21] was over 100 µM. It also gave a GI50 [22] of 24.3 µM, a TGI [22] of over 100 µM and a GI50 [23] of over 100 µM. It also gave a TGI [23] of over 100 µM, a GI50 [24] of 93.2 µM and a TGI [24] of over 100 µM. The GI50 [25] was over 10 µM, the TGI [25] was over 10 µM and the GI50 [26] was 26.6 µM. For the same compound, the TGI [26] was 99 µM, the GI50 [27] was over 100 µM and the TGI [27] was over 100 µM. The GI50 [28] was over 100 µM, the TGI [28] was over 100 µM and the GI50 [29] was 92.7 µM. For the same compound, the TGI [29] was over 100 µM, the GI50 [30] was over 100 µM and the TGI [30] was over 100 µM. For the same compound, the GI50 [31] was over 100 µM, the TGI [31] was over 100 µM and the GI50 [32] was over 100 µM. For the same compound, the TGI [32] was over 100 µM, the GI50 [33] was over 100 µM and the TGI [33] was over 100 µM. It also gave a GI50 [34] of 98.4 µM, a TGI [34] of over 100 µM and a GI50 [35] of 54.8 µM. The TGI [35] was over 100 µM, the GI50 [36] was over 100 µM and the TGI [36] was over 100 µM. It also gave a GI50 [37] of over 100 µM, a TGI [37] of over 100 µM and a GI50 [38] of 52.9 µM. It also gave a TGI [38] of over 100 µM, a GI50 [39] of over 100 µM and a TGI [39] of over 100 µM. It also gave a GI50 [40] of over 100 µM, a TGI [40] of over 100 µM and a GI50 [41] of over 100 µM. The TGI [41] was over 100 µM, the GI50 [42] was over 100 µM and the TGI [42] was over 100 µM. For the same compound, the GI50 [43] was 42.9 µM, the TGI [43] was over 100 µM and the GI50 [44] was over 100 µM. The TGI [44] was over 100 µM, the GI50 [45] was over 100 µM and the TGI [45] was over 100 µM. The GI50 [46] was over 100 µM, the TGI [46] was over 100 µM and the GI50 [47] was over 100 µM. It also gave a TGI [47] of over 100 µM, a GI50 [48] of over 100 µM and a TGI [48] of over 100 µM.
